Assay results taken from patent US20230117777A1, “METHYLATION OF MCL-1 COMPOUNDS” (Amgen Inc., priority 2020, published 2023).

Test: Moisture sorption profile (DVS)
Type: physicochemical
Conditions: by 95% RH; FIG. 6
Experimental: Moisture Sorption: Moisture sorption data was collected using a Surface Measurement Systems DVSAdvantage instrument. Equilibrium criteria were set at ±0.001% weight change in 10 minutes with a maximum equilibrium time of 360 minutes.

weight gain (moisture sorption profile): 3.3%
SMILES: CO[C@]1(CN2CCN3CCCC[C@@H]3C2)/C=C/C[C@H](C)[C@@H](C)S(=O)(=O)NC(=O)c2ccc3c(c2)N(C[C@@H]2CC[C@H]21)C[C@@]1(CCCc2cc(Cl)ccc21)CO3 [crystalline hydrate form of compound A]
